Key:
Type in all cases: biochemical
Settings in all cases: at 10 μM; single dose, triplicate
[1] = test system: MMP-8; test: MMP-8 fluorometric FRET protease assay
[2] = test system: MMP-12; test: MMP-12 fluorometric FRET protease assay
[3] = test system: MMP-1; test: MMP-1 fluorometric FRET protease assay
[4] = test system: MMP-3; test: MMP-3 fluorometric FRET protease assay
[5] = test system: MMP-14; test: MMP-14 fluorometric FRET protease assay
[6] = test system: MMP-2; test: MMP-2 fluorometric FRET protease assay
[7] = test system: MMP-7; test: MMP-7 fluorometric FRET protease assay
[8] = test system: MMP-9; test: MMP-9 fluorometric FRET protease assay

O=C(O)CCCOc1cccc(CNC(=O)C#Cc2cn(Cc3ccc(C(=O)O)cc3)c(=O)[nH]c2=O)c1 [Compound 4, 4-({5-[2-({[3-(3-carboxypropoxy)phenyl]methyl}carbamoyl)eth-1-yn-1-yl]-2,4-dioxo-1,2,3,4-tetrahydropyrimidin-1-yl}methyl)benzoic acid]
<50 % inhibition at 10 μM: MMP-8 inhibition [1] | MMP-12 inhibition [2] | MMP-1 inhibition [3] | MMP-3 inhibition [4] | MMP-14 inhibition [5] | MMP-2 inhibition [6] | MMP-7 inhibition [7] | MMP-9 inhibition [8]

— article PMC4506557 (Chemmedchem, 2014)
